Data as given in US6841089B2, “Detoxification of onium compounds” (Baker Hughes Incorporated, priority 2001, dated 2005).

Assays:
Assay type in all cases: physicochemical
[1] = Quat removal from brine: additive, then heptane extraction, water layer analyzed for quat (Examples 1-4); details: brine of 97.50 g water and 2.50 μg sodium chloride dosed with 1.52 g methanolic quat solution; 90 ml sample; 1.00 g DDBSA or 0.90 g oleic acid; shaken 1 minute with 10 ml heptane; centrifuged
Description: A brine solution comprising 97.50 g of water and […] of sodium chloride was dosed with 1.52 g of a methanolic solution of a quat (solution contains 33% methanol and 67% RE 4136 quaternary ammonium compound available from Baker Petrolite). A 90 ml sample of the water, sodium chloride, quat solution was shaken by hand for 1 minute with 10 ml of heptane. The mixture is centrifuged to separate the layers and the water layer was analyzed for quat. The above test was repeated but in this case the sample was dosed with 1.00 g of dodecylbenzenesulfonic acid (DDBSA) or 0.90 g of oleic acid (as indicated) before the addition of heptane and shaken by hand. These two cases required prolonged centrifugation to separate the phases. Again, the water phase was analyzed for quat. The quat concentration is expressed in ppm of methanolic quat solution.

[2] = Quat removal from brine: additive without heptane, oil layer separated, water layer washed with heptane (Examples 5-6); details: same brine/quat solution, 90 ml; 0.45 g p-TSA or 0.74 g naphthenic acids; shaken 1 minute without heptane; water layer washed with 10 ml heptane
Description: In a second set of tests, a 90 ml sample of the above water, sodium chloride and quat solution was dosed with 0.45 g of para-toluenesulfonic acid (p-TSA) or 0.74 g of a mixture of naphthenic acids (as indicated). In this test, the mixture was shaken 1 minute by hand in the absence of heptane. The samples were centrifuged. An oil layer separated and remained at the top of the samples. The slightly hazy water layer was removed. The water layer was washed with 10 ml of heptane and again centrifuged. The clear water layer was analyzed for quat.

[3] = Quat removal from 16% sodium chloride brine suspension (Examples 7-8); details: brine of 84 g water and 16 g sodium chloride with 1.52 g quat solution, used as suspension; 90 ml; 0.45 g p-TSA or 0.74 g naphthenic acids
Description: In a third set of tests, a brine solution comprising 84 g of water and 16 g of sodium chloride was dosed with 1.52 g of the above quat solution. In this case, the quat separates to some extent from the brine on standing and was used immediately in the next step as a suspension. A 90 ml sample of this suspension was dosed with 0.45 g of p-TSA or 0.74 g of a mixture of naphthenic acids (as indicated). The samples were treated as above and analyzed for quat.

ppm of methanolic quat solution in water [1]	ppm of methanolic quat solution in water [2]	ppm of methanolic quat solution in water [3]	Compound
76 ppm	–	–	CCCCCCCCCCCCc1ccc(S(=O)(=O)O)cc1 [DDBSA, dodecylbenzenesulfonic acid]
15,000 ppm	–	–	CCCCCCC [Heptane only, heptane]
121 ppm	–	–	CCCCCCCC/C=C\CCCCCCCC(=O)O [Oleic acid, oleic acid]
–	178 ppm	88 ppm	Cc1ccc(S(=O)(=O)O)cc1 [p-TSA, para-toluenesulfonic acid]
